The results in this text go back to patent publication US10799474B2, “Method of treating leukemia utilizing somatic cell reprogramming” (priority 2016, dated 2020).

The test system of this data set is normal hematopoietic stem cells/progenitor cells. As to conditions: mouse, in vivo. As for the experimental part: 7. Reprogramming factors have less effect on normal hematopoietic stem cells/progenitor cells: bone marrow cells and leukemic cells of OSKM mice were co-transplanted into lethally irradiated mice. After leukemia developed in the mice, Dox was added into the drinking water of the mice in experimental group for 7 days. […] It can be seen from FIG. 5A that the ratios of normal hematopoietic stem cells and progenitor cells in the mouse bone marrows were not affected after Dox treatment. […] It can be seen from FIG. 5B that the apoptosis of normal hematopoietic stem cells and progenitor cells was not affected after Dox treatment. […] It can be seen from FIGS. 5A, 5B, and 5C that the number and apoptosis of normal hematopoietic stem cells/progenitor cells were not affected and the mice in the experimental group were recovered from leukemia.

The structures appear in SMILES notation.

For the compound `C[C@H]1c2cccc(O)c2C(=O)C2=C(O)[C@]3(O)C(=O)C(C(N)=O)=C(O)[C@@H](N(C)C)[C@@H]3[C@@H](O)[C@@H]21` [Dox, doxycycline], the “apoptosis of normal hematopoietic stem cells and progenitor cells in the bone marrow” value was “not affected”; the “ratios of normal hematopoietic stem cells and progenitor cells in the bone marrow” value is “not affected”.
